Results taken from ChEMBL document CHEMBL1134431, “Chemoenzymatic synthesis of functionalized cyclohexylglycines and alpha-methylcyclohexylglycines via Kazmaier-Claisen rearrangement” (Bioorg Med Chem Lett, 2001).

Experiments:
Stromelysin-1 = Stromelysin-1 (Homo sapiens, UniProt P08254); experiment: Inhibition of Stromelysin (Matrix metalloprotease-3)
[1] = molecular target: 72 kDa type IV collagenase (Homo sapiens, UniProt P08253); experiment: Inhibition of gelatinase A (Matrix metalloprotease-2)
Collagenase 3 = Collagenase 3 (Homo sapiens, UniProt P45452); experiment: Inhibition of Collagenase 3 (Matrix metalloprotease-13)

Chain of 72 kDa type IV collagenase (P08253 whole entry): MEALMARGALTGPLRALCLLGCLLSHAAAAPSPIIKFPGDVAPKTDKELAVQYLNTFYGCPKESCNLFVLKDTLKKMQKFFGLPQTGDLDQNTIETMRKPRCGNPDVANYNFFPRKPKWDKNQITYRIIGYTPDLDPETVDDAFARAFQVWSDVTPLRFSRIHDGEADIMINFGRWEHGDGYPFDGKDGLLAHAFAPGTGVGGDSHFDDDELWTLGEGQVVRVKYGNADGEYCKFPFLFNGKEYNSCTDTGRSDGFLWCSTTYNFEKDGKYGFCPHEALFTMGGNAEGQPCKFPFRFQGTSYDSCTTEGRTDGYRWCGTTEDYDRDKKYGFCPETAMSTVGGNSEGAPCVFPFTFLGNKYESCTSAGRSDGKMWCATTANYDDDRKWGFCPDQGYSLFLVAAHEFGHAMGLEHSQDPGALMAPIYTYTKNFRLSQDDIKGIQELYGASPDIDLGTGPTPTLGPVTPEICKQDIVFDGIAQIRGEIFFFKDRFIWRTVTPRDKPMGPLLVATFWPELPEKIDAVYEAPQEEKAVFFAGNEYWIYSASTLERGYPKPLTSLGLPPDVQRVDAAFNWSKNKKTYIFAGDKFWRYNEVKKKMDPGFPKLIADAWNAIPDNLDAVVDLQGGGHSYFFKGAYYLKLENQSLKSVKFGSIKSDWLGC
Chain of Stromelysin-1 (P08254 whole entry): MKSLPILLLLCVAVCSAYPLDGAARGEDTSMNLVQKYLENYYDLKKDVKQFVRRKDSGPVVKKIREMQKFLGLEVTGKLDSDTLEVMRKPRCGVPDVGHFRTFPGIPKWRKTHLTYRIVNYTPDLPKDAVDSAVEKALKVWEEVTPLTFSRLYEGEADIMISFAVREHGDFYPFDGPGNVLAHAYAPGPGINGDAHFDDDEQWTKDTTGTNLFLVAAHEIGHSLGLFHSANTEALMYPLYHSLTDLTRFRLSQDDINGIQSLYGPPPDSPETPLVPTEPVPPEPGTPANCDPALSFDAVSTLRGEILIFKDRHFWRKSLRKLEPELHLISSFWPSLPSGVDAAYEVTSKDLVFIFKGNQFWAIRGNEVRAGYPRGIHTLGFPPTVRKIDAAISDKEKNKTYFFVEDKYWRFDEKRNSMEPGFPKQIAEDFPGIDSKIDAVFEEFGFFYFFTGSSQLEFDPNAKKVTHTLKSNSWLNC

Compound: COc1ccc(-c2ccc(S(=O)(=O)N[C@@H](C(=O)O)C3C=C[C@@H](O)CC3)cc2)cc1 (some centres not stated)
- IC50 (Stromelysin-1): 2.49 µM
- IC50 [1]: 0.02 µM
- IC50 (Collagenase 3): 0.176 µM

Compound: COc1ccc(-c2ccc(S(=O)(=O)N[C@@H](C(=O)O)C3CC[C@H](O)C=C3Br)cc2)cc1 (some centres not stated)
- IC50 (Stromelysin-1): 3.8 µM
- IC50 [1]: 0.038 µM
- IC50 (Collagenase 3): 0.131 µM

Compound: COc1ccc(-c2ccc(S(=O)(=O)N[C@@H](C(=O)O)C3CCC(O)CC3)cc2)cc1 (some centres not stated)
- IC50 (Stromelysin-1): 1.22 µM
- IC50 [1]: 0.012 µM
- IC50 (Collagenase 3): 0.03 µM

Compound: COc1ccc(-c2ccc(S(=O)(=O)N[C@@](C)(C(=O)O)C3CCC(O)CC3)cc2)cc1 (some centres not stated)
- IC50 (Stromelysin-1): 6.15 µM
- IC50 [1]: 0.251 µM
- IC50 (Collagenase 3): 0.338 µM
